Results: patent US20060258754A1, “Method of treating endothelial dysfunction, oxidative stress and related diseases” (priority 2004, published 2006)

Legend:
[1] = Blood glucose and serum triglycerides after chronic administration in alloxan diabetic rats; assay type: in vivo, alloxan induced diabetic rats; details: 20 mg/kg 2× daily for 4 weeks
Excerpt: The use of DCI and its derivative for the treatment of a variety of metabolic disorders, more specifically those that are related to insulin resistance have been the subject matter of patents and publications. The treatment of insulin resistance in humans by the administration of DCI was the subject matter of U.S. Pat. No. 5,124,360. Since DCI is found in the food chain it has a safety profile that warrants its use as a nutritional supplement. A method of treating a cluster of diseases with elevated blood sugar by the administration of a dietary supplement of DCI was the subject of U.S. Pat. No. 5,428,066.
Male Wistar rats, weighing between 230-250 g, fed regular chow, with free access to water were separated in four groups (n=10/each). The first two groups, termed normoglycemic, were treated with saline (0.1 mL/100 g/12 h) by the oral route (intragastric gavage) or untreated for four weeks. The second two groups, hyperglycemic, were treated with saline (0.1 mL/100 g/12 h) or treated with D-chiro-inositol (20 mg/kg/12 h) under the same protocol. […] Diabetes was induced by a single intravenous injection of 45 mg/kg alloxan as described by Sannomiya et al., 1997 ( ). Diabetes was diagnosed 96 h after injection by blood glucose assay >200 mg/dL. […]

[2] = human PCOS; cited from earlier work
[3] = system: aortic rings; experiment: Acute incubation of diabetic rabbit aortic rings: acetylcholine relaxation; design: species or system alloxan-diabetic rabbits; details: acute incubation 1 μM, medium and higher concentrations of acetyl choline, FIG. 7
Protocol: Male California rabbits, weighing 2-2.5 kg, were provided by the vivarium of the Biomedicine Institute-UFC. Diabetes was induced by intraperitoneal injection of alloxan (150 mg/kg) and only animals with plasma glucose concentration above 200 mg/dl were included in the study. Age-matched euglycemic rabbits were used as controls.
Kidneys and aortic rings are harvested from diabetic rabbits after 3 weeks of alloxan injection. They are perfused with KHS containing 1 μM D-chiro-inositol, pinitol, dibutyryl D-chiro-inositol, myo-inositol or saline for 1 hour. Dose response curves for acetylcholine are then performed following prior phenylephrine vasoconstriction as described. At least 6 separate experiments will be performed each in duplicate.
Kidneys and aortic rings were harvested from diabetic rabbits after 3 weeks of alloxan injection. The animals were sacrificed under sodium pentobarbital anesthesia (Hypnol®, 150-200 mg/kg). […]. Rabbit kidneys were obtained from male New Zealand rabbits (1-1.5 kg) after cannulation of the renal artery in situ. […] The alterations in perfusion pressure are continuously recorded in a four-channel polygraph (Narco Biosystems, Houston, Tex., USA) by means of a pressure transducer (P23 Gould Stratham, Oxnard, Calif., USA). […]

[4] = system: diabetic RbCC; experiment: Relaxant response of diabetic RbCC to NO and Ach after in vitro inositol addition; details: in vitro inositol addition (one hour)
Protocol: NO action was investigated in aortic rings and RbCC. […] The data in FIGS. 14 are expressed as mean±SEM of 5 experimental units. * p<0.05, ANOVA followed by Tukey-Kramer, diab (C) vs. Inositol treated. # p<0.05, ANOVA followed by Tukey-Kramer, Eugly vs. Inositol treated. In FIG. 14, Veh=vehicle; C=diabetic control; Diab=diabetic control; Eugly=euglycemic tissue. Relaxation was restored toward or to normal by incubation with inositols.

Compound | blood glucose [1] | serum triglycerides [1] | ovulation, glucose tolerance and metabolic balance in PCOS [2] | restoring vasorelaxant effect in aortic rings [3] | restoring vasorelaxant effect in aortic rings ([3]; listed as dibutyryl D-chiro-inositol) | relaxant response to graded concentrations of NO and to Ach [4]
OC1C(O)C(O)C(O)C(O)C1O [DCI, D-chiro-inositol] | decreased | decreased | effective in human PCOS in restoring ovulation, glucose tolerance and metabolic balance | – | – | –
CCCC(=O)O[C@@H]1[C@@H](O)[C@@H](O)[C@H](O)[C@H](O)[C@H]1OC(=O)CCC [dbDCI, 3,4-dibutyryl-D-chiroinositol] | – | – | – | more effective than myoinositol | clearly more effective than myo-inositol | more effective than the other three inositols
